Consider five compounds from PubChem BioAssay (NCI).

Where “and” joins values, the source holds several entries; their conditions need not be identical. Equal entries are not always repeated.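 Five concentrations, 48 hours, 96-well plates. TGI: concentration producing complete growth inhibition.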

The test system of one test is SNB-75 CNS. Kind of test: growth of human tumour cells (NCI), 48 h.
As to `Nc1nc(=S)c2ncn(C3CC(O)C(CO)O3)c2[nH]1` (centres undefined), the TGI is 377 µM and 3000 µM.
For `NC(N)=NS(=O)(=O)c1ccc(NCc2c3ccccc3[n+]([O-])c3ccccc23)cc1`, the TGI came to 84.8 µM.
Still for that read-out and setting: with `O=C(O)CC/C(=N\Nc1nsc2ccccc12)c1ccccc1` the figure was 61.3 µM.

A further test relates to KM12 colon. Kind of test: growth of human tumour cells (NCI), 48 h.
Consider `CCN(CC)c1c(C(=O)/C=C/c2ccccc2)c(-c2ccccc2)nn(C)c1=O`, for which the TGI was > 100 µM.
As to `Nc1nc(=S)c2ncn(C3CC(O)C(CO)O3)c2[nH]1` (centres undefined), the TGI was 75 µM and 700 µM.
In the case of `NC(N)=NS(=O)(=O)c1ccc(NCc2c3ccccc3[n+]([O-])c3ccccc23)cc1`, the TGI was > 100 µM.
In the case of `COC(=O)C(CCC#N)(CCC#N)C(=O)OC`, the TGI is > 100 µM.
Take `O=C(O)CC/C(=N\Nc1nsc2ccccc12)c1ccccc1`: the TGI is > 100 µM.

For the next test, the system named is SN12C renal. The test is described as follows: growth of human tumour cells (NCI), 48 h.
Turning to `CCN(CC)c1c(C(=O)/C=C/c2ccccc2)c(-c2ccccc2)nn(C)c1=O`, the TGI was > 100 µM.
For `Nc1nc(=S)c2ncn(C3CC(O)C(CO)O3)c2[nH]1` (centres undefined), the TGI is 353 µM and 3130 µM.
Same read-out and setting: the same measure for `NC(N)=NS(=O)(=O)c1ccc(NCc2c3ccccc3[n+]([O-])c3ccccc23)cc1`: > 100 µM; for `COC(=O)C(CCC#N)(CCC#N)C(=O)OC`: > 100 µM.
Still for that read-out and setting: the same measure for `O=C(O)CC/C(=N\Nc1nsc2ccccc12)c1ccccc1`: > 100 µM.

For the next test, the system named is SR leukemia. Kind of test: growth of human tumour cells (NCI), 48 h.
Take `CCN(CC)c1c(C(=O)/C=C/c2ccccc2)c(-c2ccccc2)nn(C)c1=O`: the TGI is > 100 µM.
On to `COC(=O)C(CCC#N)(CCC#N)C(=O)OC`, for which the TGI was > 100 µM.
In turn, `O=C(O)CC/C(=N\Nc1nsc2ccccc12)c1ccccc1` displayed a TGI of 93.3 µM.

The test system of the next test is COLO 205 colon. Kind of test: growth of human tumour cells (NCI), 48 h.
Turning to `CCN(CC)c1c(C(=O)/C=C/c2ccccc2)c(-c2ccccc2)nn(C)c1=O`, the TGI is > 100 µM.
For the compound `NC(N)=NS(=O)(=O)c1ccc(NCc2c3ccccc3[n+]([O-])c3ccccc23)cc1`, the TGI was > 100 µM.
On the same count and under the same terms, with `COC(=O)C(CCC#N)(CCC#N)C(=O)OC` the figure was > 100 µM; with `O=C(O)CC/C(=N\Nc1nsc2ccccc12)c1ccccc1`, > 100 µM.

For another test, the system named is DMS 114 small cell lung. The test is described as follows: growth of human tumour cells (NCI), 48 h.
In the case of `CCN(CC)c1c(C(=O)/C=C/c2ccccc2)c(-c2ccccc2)nn(C)c1=O`, the TGI is > 100 µM.
In turn, `NC(N)=NS(=O)(=O)c1ccc(NCc2c3ccccc3[n+]([O-])c3ccccc23)cc1` registered a TGI of 56.6 µM.
Take `COC(=O)C(CCC#N)(CCC#N)C(=O)OC`: the TGI was > 100 µM.
In turn, `O=C(O)CC/C(=N\Nc1nsc2ccccc12)c1ccccc1` came in with a TGI of 82 µM.

Another test relates to HCT-116 colon. Kind of test: growth of human tumour cells (NCI), 48 h.
In turn, `NC(N)=NS(=O)(=O)c1ccc(NCc2c3ccccc3[n+]([O-])c3ccccc23)cc1` gave a TGI of 31.9 µM.
Turning to `COC(=O)C(CCC#N)(CCC#N)C(=O)OC`, the TGI is > 100 µM.
For the compound `O=C(O)CC/C(=N\Nc1nsc2ccccc12)c1ccccc1`, the TGI was > 100 µM.

For another test, the system named is TK-10 renal. The test is described as follows: growth of human tumour cells (NCI), 48 h.
In the case of `CCN(CC)c1c(C(=O)/C=C/c2ccccc2)c(-c2ccccc2)nn(C)c1=O`, the TGI was > 100 µM.
On to `NC(N)=NS(=O)(=O)c1ccc(NCc2c3ccccc3[n+]([O-])c3ccccc23)cc1`, for which the TGI was > 100 µM.
Consider `O=C(O)CC/C(=N\Nc1nsc2ccccc12)c1ccccc1`, for which the TGI is > 100 µM.

A further test deals with SW-620 colon. Kind of test: growth of human tumour cells (NCI), 48 h.
With `Nc1nc(=S)c2ncn(C3CC(O)C(CO)O3)c2[nH]1` (centres undefined), the TGI is 385 µM and 3540 µM.
For the compound `NC(N)=NS(=O)(=O)c1ccc(NCc2c3ccccc3[n+]([O-])c3ccccc23)cc1`, the TGI was > 100 µM.
For the compound `COC(=O)C(CCC#N)(CCC#N)C(=O)OC`, the TGI is > 100 µM.
As to `O=C(O)CC/C(=N\Nc1nsc2ccccc12)c1ccccc1`, the TGI is > 100 µM.

In a further test the test system is IGROV1 ovarian. Kind of test: growth of human tumour cells (NCI), 48 h.
Turning to `CCN(CC)c1c(C(=O)/C=C/c2ccccc2)c(-c2ccccc2)nn(C)c1=O`, the TGI was > 100 µM.
For `Nc1nc(=S)c2ncn(C3CC(O)C(CO)O3)c2[nH]1` (centres undefined), the TGI was 521 µM and 2870 µM.
Still for that read-out and setting: the same measure for `NC(N)=NS(=O)(=O)c1ccc(NCc2c3ccccc3[n+]([O-])c3ccccc23)cc1`: > 100 µM.
For the compound `COC(=O)C(CCC#N)(CCC#N)C(=O)OC`, the TGI was > 100 µM.
As for `O=C(O)CC/C(=N\Nc1nsc2ccccc12)c1ccccc1`, the TGI was > 100 µM.

The next test deals with HOP-92 NSCLC. The test is described as follows: growth of human tumour cells (NCI), 48 h.
For the compound `CCN(CC)c1c(C(=O)/C=C/c2ccccc2)c(-c2ccccc2)nn(C)c1=O`, the TGI was > 100 µM.
In turn, `NC(N)=NS(=O)(=O)c1ccc(NCc2c3ccccc3[n+]([O-])c3ccccc23)cc1` showed a TGI of 28.5 µM.
For the compound `O=C(O)CC/C(=N\Nc1nsc2ccccc12)c1ccccc1`, the TGI was > 100 µM.

A further test relates to SK-MEL-28 melanoma. Kind of test: growth of human tumour cells (NCI), 48 h.
On to `CCN(CC)c1c(C(=O)/C=C/c2ccccc2)c(-c2ccccc2)nn(C)c1=O`, for which the TGI was > 100 µM.
With `Nc1nc(=S)c2ncn(C3CC(O)C(CO)O3)c2[nH]1` (centres undefined), the TGI is 594 µM and > 5000 µM.
For the compound `NC(N)=NS(=O)(=O)c1ccc(NCc2c3ccccc3[n+]([O-])c3ccccc23)cc1`, the TGI worked out at 62.5 µM.
With `COC(=O)C(CCC#N)(CCC#N)C(=O)OC`, the TGI is > 100 µM.
Take `O=C(O)CC/C(=N\Nc1nsc2ccccc12)c1ccccc1`: the TGI is > 100 µM.

In another test the test system is SF-539 CNS. Kind of test: growth of human tumour cells (NCI), 48 h.
On to `CCN(CC)c1c(C(=O)/C=C/c2ccccc2)c(-c2ccccc2)nn(C)c1=O`, for which the TGI was > 100 µM.
On the same count and under the same terms, with `COC(=O)C(CCC#N)(CCC#N)C(=O)OC` the figure was > 100 µM; with `O=C(O)CC/C(=N\Nc1nsc2ccccc12)c1ccccc1`, > 100 µM.

Another test has as its system DMS 273 small cell lung. The test is described as follows: growth of human tumour cells (NCI), 48 h.
On to `CCN(CC)c1c(C(=O)/C=C/c2ccccc2)c(-c2ccccc2)nn(C)c1=O`, for which the TGI was > 100 µM.
As for `NC(N)=NS(=O)(=O)c1ccc(NCc2c3ccccc3[n+]([O-])c3ccccc23)cc1`, the TGI is > 100 µM.
For the compound `COC(=O)C(CCC#N)(CCC#N)C(=O)OC`, the TGI is > 100 µM.
`O=C(O)CC/C(=N\Nc1nsc2ccccc12)c1ccccc1`: the TGI was found to be 67.3 µM.
